Test results: ChEMBL document CHEMBL1135381, “Synthesis and structure-activity relationship of 2-(aminoalkyl)-2,3,3a,8-tetrahydrodibenzo[c,f]isoxazolo[2,3-a]azepine derivatives: a novel series of 5-HT(2A/2C) receptor antagonists. Part 2” (Bioorg Med Chem Lett, 2002)

Experiments:
Rattus norvegicus = assay: In vivo activity in mCPP challenge test were performed in male Wistar rats by subcutaneous administration; format: functional; conditions: sc
[1] = target: T1, 5-hydroxytryptamine receptor 2C (Rattus norvegicus) (UniProt P08909); assay: In vivo activity in rat mCPP challenge test following p.o. administration.; format: functional, organism-based
T1 sequence (whole entry): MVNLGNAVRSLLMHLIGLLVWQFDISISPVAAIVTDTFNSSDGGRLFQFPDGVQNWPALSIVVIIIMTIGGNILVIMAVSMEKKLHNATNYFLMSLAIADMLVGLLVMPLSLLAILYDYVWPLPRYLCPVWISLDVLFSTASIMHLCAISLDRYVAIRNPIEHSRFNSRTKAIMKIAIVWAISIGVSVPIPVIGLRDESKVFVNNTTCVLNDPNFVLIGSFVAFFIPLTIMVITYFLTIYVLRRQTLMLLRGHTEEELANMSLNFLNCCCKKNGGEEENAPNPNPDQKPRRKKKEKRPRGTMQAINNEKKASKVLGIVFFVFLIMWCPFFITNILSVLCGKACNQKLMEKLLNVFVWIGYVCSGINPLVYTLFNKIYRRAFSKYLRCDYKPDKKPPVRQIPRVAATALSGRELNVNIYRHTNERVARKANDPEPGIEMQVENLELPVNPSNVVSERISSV

[2] = target: T2, 5-hydroxytryptamine receptor 1A (Homo sapiens, UniProt P08908); assay: Binding affinity for human cloned 5-hydroxytryptamine 1A receptor
T2 sequence (P08908 whole entry): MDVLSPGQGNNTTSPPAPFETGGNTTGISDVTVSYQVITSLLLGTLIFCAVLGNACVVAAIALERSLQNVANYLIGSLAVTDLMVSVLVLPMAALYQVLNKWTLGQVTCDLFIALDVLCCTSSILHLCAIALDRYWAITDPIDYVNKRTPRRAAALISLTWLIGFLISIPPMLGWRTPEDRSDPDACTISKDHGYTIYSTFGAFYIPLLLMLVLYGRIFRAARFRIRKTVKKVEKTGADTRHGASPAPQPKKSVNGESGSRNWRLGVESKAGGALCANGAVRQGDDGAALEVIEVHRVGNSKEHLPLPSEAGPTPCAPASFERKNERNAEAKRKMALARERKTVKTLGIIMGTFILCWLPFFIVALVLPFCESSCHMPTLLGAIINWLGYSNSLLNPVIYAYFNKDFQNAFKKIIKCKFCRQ

[3] = target: Serotonin 3 (5-HT3) receptor; assay: Binding affinity for human cloned 5-hydroxytryptamine 3 receptor; format: protein-complex assay
D(4) dopamine receptor = target: T3, D(4) dopamine receptor (Homo sapiens, UniProt P21917); assay: Binding affinity for human cloned Dopamine receptor D4
T3 sequence (P21917 whole entry): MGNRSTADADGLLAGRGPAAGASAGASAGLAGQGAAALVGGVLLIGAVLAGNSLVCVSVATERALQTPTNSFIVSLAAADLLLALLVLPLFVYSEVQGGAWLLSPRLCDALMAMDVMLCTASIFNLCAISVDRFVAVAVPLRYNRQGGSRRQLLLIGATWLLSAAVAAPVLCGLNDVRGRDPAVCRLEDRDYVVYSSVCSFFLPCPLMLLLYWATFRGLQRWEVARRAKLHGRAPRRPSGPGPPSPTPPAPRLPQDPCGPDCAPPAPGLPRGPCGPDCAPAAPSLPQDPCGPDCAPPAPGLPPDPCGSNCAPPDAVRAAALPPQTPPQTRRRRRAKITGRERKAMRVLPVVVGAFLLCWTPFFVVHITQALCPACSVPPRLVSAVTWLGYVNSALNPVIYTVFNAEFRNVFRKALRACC

[4] = target: 5-hydroxytryptamine receptor 1D (Homo sapiens, UniProt P28221); assay: Binding affinity for human cloned 5-hydroxytryptamine 1D receptor
[5] = target: 5-hydroxytryptamine receptor 2A (Homo sapiens, UniProt P28223); assay: Binding affinity at human cloned 5-hydroxytryptamine 2A receptor expressed in L929 cells by [125I]R91150 displacement.; format: cell-based
[6] = target: T4, Alpha-2C adrenergic receptor (Homo sapiens, UniProt P18825); assay: Binding affinity for human cloned Alpha-2C adrenergic receptor
T4 sequence (P18825 whole entry): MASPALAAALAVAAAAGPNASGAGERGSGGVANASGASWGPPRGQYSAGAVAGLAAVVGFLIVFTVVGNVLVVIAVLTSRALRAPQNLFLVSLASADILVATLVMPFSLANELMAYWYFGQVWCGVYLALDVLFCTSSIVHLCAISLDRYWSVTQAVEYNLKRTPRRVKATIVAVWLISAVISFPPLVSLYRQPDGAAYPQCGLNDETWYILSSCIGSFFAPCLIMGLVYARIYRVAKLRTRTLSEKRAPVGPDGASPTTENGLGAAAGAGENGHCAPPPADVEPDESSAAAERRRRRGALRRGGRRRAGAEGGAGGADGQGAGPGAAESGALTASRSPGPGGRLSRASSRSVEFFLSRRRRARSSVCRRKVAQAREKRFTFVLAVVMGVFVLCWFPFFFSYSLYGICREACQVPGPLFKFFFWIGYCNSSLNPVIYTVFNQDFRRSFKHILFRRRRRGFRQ

[7] = target: T5, Alpha-2A adrenergic receptor (Homo sapiens, UniProt P08913); assay: Binding affinity for human cloned Alpha-2A adrenergic receptor
T5 sequence (P08913 whole entry): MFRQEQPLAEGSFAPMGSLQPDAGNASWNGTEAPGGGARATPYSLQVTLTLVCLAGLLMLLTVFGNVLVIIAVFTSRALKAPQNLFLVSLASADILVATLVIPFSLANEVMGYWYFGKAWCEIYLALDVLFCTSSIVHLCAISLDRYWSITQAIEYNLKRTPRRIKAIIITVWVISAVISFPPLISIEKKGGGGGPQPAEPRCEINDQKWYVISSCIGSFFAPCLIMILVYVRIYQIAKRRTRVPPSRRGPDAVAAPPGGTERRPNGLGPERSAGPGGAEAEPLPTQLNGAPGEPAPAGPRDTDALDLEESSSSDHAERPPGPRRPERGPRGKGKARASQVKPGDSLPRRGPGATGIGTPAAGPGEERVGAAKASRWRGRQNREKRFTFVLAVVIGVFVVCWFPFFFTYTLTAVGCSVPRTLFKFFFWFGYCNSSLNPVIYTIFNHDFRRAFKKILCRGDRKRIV

D(3) dopamine receptor = D(3) dopamine receptor (Homo sapiens, UniProt P35462); assay: Binding affinity for human cloned Dopamine receptor D3
Histamine H1 receptor = Histamine H1 receptor (Homo sapiens, UniProt P35367); assay: Binding affinity at human cloned Histamine H1 receptor expressed in CHO cells by [3H]pyrilamine displacement.; format: cell-based
[8] = target: T6, 5-hydroxytryptamine receptor 2C (Homo sapiens, UniProt P28335); assay: Binding affinity at human cloned 5-hydroxytryptamine 2C receptor expressed in CHO cells by [3H]mesulergine displacement.; format: cell-based
T6 sequence (P28335 whole entry): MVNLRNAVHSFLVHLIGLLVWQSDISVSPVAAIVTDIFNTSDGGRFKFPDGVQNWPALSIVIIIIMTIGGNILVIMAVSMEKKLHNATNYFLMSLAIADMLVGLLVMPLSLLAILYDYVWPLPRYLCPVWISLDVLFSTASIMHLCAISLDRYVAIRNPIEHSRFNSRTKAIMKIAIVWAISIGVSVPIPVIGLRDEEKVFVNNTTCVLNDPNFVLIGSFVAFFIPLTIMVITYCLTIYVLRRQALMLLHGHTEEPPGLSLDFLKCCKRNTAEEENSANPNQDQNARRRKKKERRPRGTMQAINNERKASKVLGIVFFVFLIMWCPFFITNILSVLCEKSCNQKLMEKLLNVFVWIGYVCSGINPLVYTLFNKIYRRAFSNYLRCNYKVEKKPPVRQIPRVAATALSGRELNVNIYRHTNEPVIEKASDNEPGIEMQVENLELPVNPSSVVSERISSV

D(2) dopamine receptor = D(2) dopamine receptor (Rattus norvegicus, UniProt P61169); assay: Binding affinity for rat Dopamine receptor D2
D(2) dopamine receptor, sequence (P61169 whole entry): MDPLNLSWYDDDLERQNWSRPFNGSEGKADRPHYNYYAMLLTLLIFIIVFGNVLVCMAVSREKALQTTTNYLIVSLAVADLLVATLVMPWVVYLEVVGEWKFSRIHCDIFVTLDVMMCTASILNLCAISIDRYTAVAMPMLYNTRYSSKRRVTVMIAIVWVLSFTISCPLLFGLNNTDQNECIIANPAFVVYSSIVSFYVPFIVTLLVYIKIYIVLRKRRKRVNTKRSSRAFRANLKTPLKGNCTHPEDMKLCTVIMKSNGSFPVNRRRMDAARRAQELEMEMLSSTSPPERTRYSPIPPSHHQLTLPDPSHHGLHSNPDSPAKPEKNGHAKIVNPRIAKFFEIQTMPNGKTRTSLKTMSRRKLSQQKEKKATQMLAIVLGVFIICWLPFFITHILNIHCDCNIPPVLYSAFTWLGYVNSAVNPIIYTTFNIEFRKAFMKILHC

Histamine H1 receptor, sequence (P35367 whole entry): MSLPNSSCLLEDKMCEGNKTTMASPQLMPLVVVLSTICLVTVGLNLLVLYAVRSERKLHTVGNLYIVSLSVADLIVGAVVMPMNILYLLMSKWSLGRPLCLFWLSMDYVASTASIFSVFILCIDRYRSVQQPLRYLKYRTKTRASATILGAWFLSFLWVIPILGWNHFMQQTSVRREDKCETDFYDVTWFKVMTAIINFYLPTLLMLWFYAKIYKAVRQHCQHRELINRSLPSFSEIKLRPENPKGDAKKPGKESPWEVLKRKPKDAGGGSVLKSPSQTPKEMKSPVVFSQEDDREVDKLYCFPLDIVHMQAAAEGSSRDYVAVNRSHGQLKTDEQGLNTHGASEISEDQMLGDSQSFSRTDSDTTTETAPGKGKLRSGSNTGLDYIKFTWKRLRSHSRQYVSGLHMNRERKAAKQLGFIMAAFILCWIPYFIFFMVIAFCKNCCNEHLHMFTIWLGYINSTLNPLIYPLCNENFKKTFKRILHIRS
5-hydroxytryptamine receptor 2A, sequence (P28223 whole entry): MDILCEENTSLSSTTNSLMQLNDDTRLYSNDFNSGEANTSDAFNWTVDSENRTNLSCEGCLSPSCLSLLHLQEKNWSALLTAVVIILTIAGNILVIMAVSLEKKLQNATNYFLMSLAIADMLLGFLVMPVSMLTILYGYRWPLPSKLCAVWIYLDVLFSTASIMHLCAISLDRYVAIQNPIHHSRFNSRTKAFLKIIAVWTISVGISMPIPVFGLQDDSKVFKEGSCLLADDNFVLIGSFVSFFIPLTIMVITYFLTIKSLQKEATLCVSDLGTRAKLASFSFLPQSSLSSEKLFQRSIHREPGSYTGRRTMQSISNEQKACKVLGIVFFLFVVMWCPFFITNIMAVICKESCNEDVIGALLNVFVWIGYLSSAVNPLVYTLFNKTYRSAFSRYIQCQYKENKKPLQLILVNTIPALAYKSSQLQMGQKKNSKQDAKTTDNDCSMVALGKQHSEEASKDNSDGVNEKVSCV
D(3) dopamine receptor, sequence (P35462 whole entry): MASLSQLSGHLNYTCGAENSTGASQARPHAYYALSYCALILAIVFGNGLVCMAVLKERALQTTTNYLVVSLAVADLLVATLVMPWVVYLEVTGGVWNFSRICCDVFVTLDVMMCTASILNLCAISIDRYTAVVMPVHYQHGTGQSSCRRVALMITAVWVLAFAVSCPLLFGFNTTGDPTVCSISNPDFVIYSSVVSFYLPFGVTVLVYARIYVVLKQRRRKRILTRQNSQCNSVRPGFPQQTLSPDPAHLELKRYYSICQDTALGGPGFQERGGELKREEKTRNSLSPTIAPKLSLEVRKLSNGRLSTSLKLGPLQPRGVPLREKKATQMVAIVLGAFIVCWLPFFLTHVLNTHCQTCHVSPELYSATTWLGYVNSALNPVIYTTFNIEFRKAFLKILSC
5-hydroxytryptamine receptor 1D, sequence (P28221 whole entry): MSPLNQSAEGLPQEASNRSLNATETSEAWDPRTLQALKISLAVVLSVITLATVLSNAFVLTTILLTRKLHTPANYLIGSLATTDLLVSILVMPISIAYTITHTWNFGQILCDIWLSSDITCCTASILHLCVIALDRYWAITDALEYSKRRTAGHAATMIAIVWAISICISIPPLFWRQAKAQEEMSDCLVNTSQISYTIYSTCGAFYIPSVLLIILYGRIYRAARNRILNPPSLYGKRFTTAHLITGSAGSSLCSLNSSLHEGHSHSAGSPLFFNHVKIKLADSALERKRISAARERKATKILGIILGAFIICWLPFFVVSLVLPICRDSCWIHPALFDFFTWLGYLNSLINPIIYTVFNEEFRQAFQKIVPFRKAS

SMILES	ED50 [1]	IC50 [5]	ED50 (Rattus norvegicus)	further results
CN(C)CC1CC2c3ccccc3Cc3c(F)cccc3N2O1 (configuration not stated)	2.5 mg/kg			
Cc1cccc2c1C1CC(CN(C)C)ON1c1ccccc1C2 (configuration not stated)	> 2.5 mg/kg			
CN(C)CC1CC2c3cc(F)ccc3Cc3ccc(F)cc3N2O1 (configuration not stated)	0.63 mg/kg	10.7 nM	0.04 mg/kg	IC50 [2]: > 1000 nM; pIC50 [3]: < 6; IC50 (D(4) dopamine receptor): > 1000 nM; IC50 [4]: > 1000 nM; IC50 [6]: > 1000 nM; IC50 [7]: > 1000 nM; IC50 (D(3) dopamine receptor): > 1000 nM
CN(C)CC1CC2c3c(F)cccc3Cc3ccccc3N2O1 (configuration not stated)		> 1000 nM	> 2.5 mg/kg	IC50 (Histamine H1 receptor): > 1000 nM; IC50 [8]: > 1000 nM
CN(C)CC1CC2c3ccc(Cl)cc3Cc3ccccc3N2O1 (configuration not stated)			> 2.5 mg/kg	
CN(C)CC1CC2c3c(cccc3C(F)(F)F)Cc3ccccc3N2O1 (configuration not stated)	> 2.5 mg/kg		2.5 mg/kg	
CN(C)CC1CC2c3cc(C(F)(F)F)ccc3Cc3ccccc3N2O1 (configuration not stated)	> 2.5 mg/kg	> 1000 nM	2.5 mg/kg	IC50 (Histamine H1 receptor): > 1000 nM; IC50 [8]: > 1000 nM
CN(C)CC1CC2c3ccccc3Cc3ccc(-c4ccccc4)cc3N2O1 (configuration not stated)	> 2.5 mg/kg		> 2.5 mg/kg	
CN(C)CC1CC2c3cccc(C(F)(F)F)c3Cc3ccccc3N2O1 (configuration not stated)	> 2.5 mg/kg			
CN(C)CC1CC2c3cccc(F)c3Cc3ccccc3N2O1 (configuration not stated)	2.5 mg/kg	31.6 nM	2.5 mg/kg	
CN(C)CC1CC2c3cccc(Cl)c3Cc3ccccc3N2O1 (configuration not stated)	> 2.5 mg/kg	> 1000 nM		IC50 (Histamine H1 receptor): > 1000 nM; IC50 [8]: > 1000 nM
CN(C)CC1CC2c3ccccc3Cc3cccc(Cl)c3N2O1 (configuration not stated)	> 2.5 mg/kg			
Cc1cccc2c1Cc1ccccc1C1CC(CN(C)C)ON21 (configuration not stated)	> 2.5 mg/kg			

Second part, led by results:

ED50 [1]	IC50 [5]	SMILES	ED50 (Rattus norvegicus)	further results
0.63 mg/kg		CN(C)CC1CC2c3ccccc3Cc3ccccc3N2O1 (configuration not stated)	0.04 mg/kg	
> 2.5 mg/kg		COc1ccc2c(c1)C1CC(CN(C)C)ON1c1ccccc1C2 (configuration not stated)		
2.5 mg/kg		CN(C)CC1CC2c3ccccc3Cc3ccc(Br)cc3N2O1 (configuration not stated)		
2.5 mg/kg		CN(C)CC1CC2c3ccccc3Cc3cc(F)ccc3N2O1 (configuration not stated)		
2.5 mg/kg	1.15 nM	CN(C)CC1CC2c3ccccc3Cc3ccc(F)cc3N2O1 (configuration not stated)		pIC50 [3]: < 6; IC50 (D(2) dopamine receptor): > 1000 nM
> 2.5 mg/kg		CN(C)CC1CC2c3cc(F)ccc3Cc3ccccc3N2O1 (configuration not stated)	> 2.5 mg/kg	
2.5 mg/kg		Cc1ccc2c(c1)N1OC(CN(C)C)CC1c1ccccc1C2 (configuration not stated)	0.16 mg/kg	IC50 [2]: > 1000 nM; pIC50 [3]: < 6; IC50 (D(4) dopamine receptor): > 1000 nM; IC50 [4]: > 1000 nM; IC50 [6]: > 1000 nM; IC50 (D(2) dopamine receptor): > 1000 nM; IC50 [7]: > 1000 nM; IC50 (D(3) dopamine receptor): > 1000 nM
2.5 mg/kg	10.5 nM	Cc1ccc2c(c1)Cc1ccccc1N1OC(CN(C)C)CC21 (configuration not stated)		
0.63 mg/kg		CN(C)CC1CC2c3ccccc3Cc3ccc(Cl)cc3N2O1 (configuration not stated)	0.16 mg/kg	pIC50 [3]: 6.32
